# From patent US20230257351A1, “SUBSTITUTED N-[…] HAVING P2X4 RECEPTOR ANTAGONISTIC ACTIVITY” (Bayer Aktiengesellschaft, priority 2020, published 2023)
# Tests used:
# rat P2X4 = biological target: T1, rat P2X4 (Rattus norvegicus, UniProt P51577); test: FLIPR Method for Rat P2X4 1321N1 Astrocytoma Cells; type: cell-based; details: 1321N1 stably expressing rat P2X4; agonist MgATP 5 μM (EC80)
# T1 construct: expressed in transfected cells
# T1 sequence (P51577 1-388): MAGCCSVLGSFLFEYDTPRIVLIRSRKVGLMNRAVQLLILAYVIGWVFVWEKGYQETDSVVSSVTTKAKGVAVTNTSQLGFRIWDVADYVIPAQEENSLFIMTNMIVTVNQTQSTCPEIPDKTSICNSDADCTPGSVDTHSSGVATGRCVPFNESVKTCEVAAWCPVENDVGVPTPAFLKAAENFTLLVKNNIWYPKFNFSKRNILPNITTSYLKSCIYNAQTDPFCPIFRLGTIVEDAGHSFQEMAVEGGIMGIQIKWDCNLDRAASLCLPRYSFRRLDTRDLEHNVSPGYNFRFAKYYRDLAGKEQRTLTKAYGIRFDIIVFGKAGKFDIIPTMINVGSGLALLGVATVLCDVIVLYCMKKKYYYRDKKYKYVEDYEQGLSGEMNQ
# Outline: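 1321N1 cells stably expressing rat P2X4, Fluo8-AM loaded; compounds (25 μM to 1 nM final, ten concentrations) preincubated 30 min at room temperature, then MgATP added at 5 μM (EC80). Calcium fluorescence read on FLIPR before and after agonist; triplicate data normalized to agonist control, four-parameter fit gives IC50.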
# human P2X4 = biological target: T2, human P2X4 (Homo sapiens, UniProt Q99571); test: Human P2X4 HEK Cell FLIPR Assay; type: cell-based; details: HEK293 stably expressing human P2X4, agonist Bz-ATP 3 μM (EC80); for IC50: read-out: Human P2X4 HEK Cells (FLIPR Assay) avg IC50
# T2 construct: expressed in transfected cells
# T2 sequence (Q99571 1-388): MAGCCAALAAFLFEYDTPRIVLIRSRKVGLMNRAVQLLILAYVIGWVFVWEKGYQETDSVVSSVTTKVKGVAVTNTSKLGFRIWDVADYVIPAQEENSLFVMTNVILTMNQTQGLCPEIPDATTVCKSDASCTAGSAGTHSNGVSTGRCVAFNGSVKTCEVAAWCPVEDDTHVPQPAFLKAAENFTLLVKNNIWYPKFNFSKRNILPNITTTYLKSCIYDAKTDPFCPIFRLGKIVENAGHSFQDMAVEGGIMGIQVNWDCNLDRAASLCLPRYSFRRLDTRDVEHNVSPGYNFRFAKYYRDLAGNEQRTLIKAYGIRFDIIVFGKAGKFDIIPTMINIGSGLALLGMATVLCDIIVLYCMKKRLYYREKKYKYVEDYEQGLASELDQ
# Outline: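 HEK293 cells stably expressing human P2X4 were loaded with Fluo8-AM (30 min, 37 °C, HBSS/HEPES pH 7.4 with probenecid), then preincubated 30 min at room temperature with compound, 25 μM–1 nM final, 0.5% DMSO. Bz-ATP-evoked calcium fluorescence was read on FLIPR; data were normalized to agonist control and given a four-parameter fit for IC50.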
IC50 (rat P2X4) [nM],Rat P2X4 1321N1 Astrocytoma Cells (FLIPR Assay) avg Efficacy (rat P2X4) [%],Human P2X4 HEK Cells (FLIPR Assay) avg Efficacy (human P2X4) [%],IC50 (human P2X4) [nM],SMILES
801,100,101,355,"CC(=O)N(c1ccc(F)cc1)c1cc(NC(=O)Cc2cccc(F)c2C(F)(F)F)ccn1 [Example 32, N-(4-fluorophenyl)-N-(4-{2-[3-fluoro-2-(trifluoromethyl)phenyl]acetamido}pyridin-2-yl)acetamide]"
649,101,102,660,"CC(=O)N(c1ccccc1)c1cc(NC(=O)Cc2ccc(F)cc2Cl)ccn1 [Example 26, N-{4-[2-(2-chloro-4-fluorophenyl)acetamido]pyridin-2-yl}-N-phenylacetamide]"
971,100,97,406,"COc1cccc(N(C(C)=O)c2cc(NC(=O)Cc3cccc(F)c3Cl)ccn2)c1 [Example 101, N-{4-[2-(2-chloro-3-fluorophenyl)acetamido]pyridin-2-yl}-N-(3-methoxyphenyl)acetamide]"
217,95,98,482,"CC(=O)N(c1ccc(F)c(C#N)c1)c1cc(NC(=O)Cc2ccc(F)cc2Cl)ccn1 [Example 22, N-{4-[2-(2-chloro-4-fluorophenyl)acetamido]pyridin-2-yl}-N-(3-cyano-4-fluorophenyl)acetamide]"
240,81,97,532,"CC(=O)N(c1ccc(Cl)c(F)c1)c1cc(NC(=O)Cc2ccc(F)cc2Cl)ccn1 [Example 59, N-(4-chloro-3-fluorophenyl)-N-{4-[2-(2-chloro-4-fluorophenyl)acetamido]pyridin-2-yl}acetamide]"
714,100,88,714,"COc1ccc(CC(=O)Nc2ccnc(N(C(C)=O)c3ccc(F)c(F)c3)c2)c(Cl)c1 [Example 70, N-{4-[2-(2-chloro-4-methoxyphenyl)acetamido]pyridin-2-yl}-N-(3,4-difluorophenyl)acetamide]"
67.1,93,97,428,"CC(=O)N(c1ccc(F)c(F)c1)c1cc(NC(=O)Cc2c(Cl)cc(F)cc2Cl)ccn1 [Example 73, N-{4-[2-(2,6-dichloro-4-fluorophenyl)acetamido]pyridin-2-yl}-N-(3,4-difluorophenyl)acetamide]"
122,93,94,505,"CC(=O)N(c1ccc(F)c(F)c1)c1cc(NC(=O)Cc2c(C)cc(C)cc2Cl)ccn1 [Example 65, N-{4-[2-(2-chloro-4,6-dimethylphenyl)acetamido]pyridin-2-yl}-N-(3,4-difluorophenyl)acetamide]"
115,91,94,589,"CC(=O)N(c1ccc(F)cc1)c1cc(NC(=O)Cc2c(F)cc(F)cc2Cl)ccn1 [Example 41, N-{4-[2-(2-chloro-4,6-difluorophenyl)acetamido]pyridin-2-yl}-N-(4-fluorophenyl)acetamide]"
92.5,77,91,391,"CC(=O)N(c1ccc(F)cc1)c1cc(NC(=O)Cc2cccc(C)c2C)ccn1 [Example 29, N-{4-[2-(2,3-dimethylphenyl)acetamido]pyridin-2-yl}-N-(4-fluorophenyl)acetamide]"
726,100,99,891,"CCCC(=O)N(c1ccc(F)cc1)c1cc(NC(=O)Cc2ccc(F)cc2Cl)ccn1 [Example 141, N-{4-[2-(2-chloro-4-fluorophenyl)acetamido]pyridin-2-yl}-N-(4-fluorophenyl)butanamide]"
152,98,100,335,"CC(=O)N(c1ccc(F)cc1)c1cc(NC(=O)Cc2c(Cl)cc(F)cc2Cl)ccn1 [Example 39, N-{4-[2-(2,6-dichloro-4-fluorophenyl)acetamido]pyridin-2-yl}-N-(4-fluorophenyl)acetamide]"
350,86,95,351,"CC(=O)N(c1ccc(Cl)c(F)c1)c1cc(NC(=O)Cc2ccccc2Cl)ccn1 [Example 58, N-(4-chloro-3-fluorophenyl)-N-{4-[2-(2-chlorophenyl)acetamido]pyridin-2-yl}acetamide]"
228,100,94,816,"CC(=O)N(c1ccc(F)c(F)c1)c1cc(NC(=O)Cc2ccc([N+](=O)[O-])cc2Cl)ccn1 [Example 69, N-{4-[2-(2-chloro-4-nitrophenyl)acetamido]pyridin-2-yl}-N-(3,4-difluorophenyl)acetamide]"
159,97,94,604,"CC(=O)N(c1ccc(F)c(F)c1)c1cc(NC(=O)Cc2ccc(Cl)cc2Cl)ccn1 [Example 67, N-{4-[2-(2,4-dichlorophenyl)acetamido]pyridin-2-yl}-N-(3,4-difluorophenyl)acetamide]"
447,97,97,269,"CC(=O)N(c1cccc(F)c1)c1cc(NC(=O)Cc2ccccc2Cl)ccn1 [Example 54, N-{4-[2-(2-chlorophenyl)acetamido]pyridin-2-yl}-N-(3-fluorophenyl)acetamide]"
143,90,97,350,"CC(=O)N(c1cc(F)cc(F)c1)c1cc(NC(=O)Cc2cccc(C)c2C)ccn1 [Example 83, N-(3,5-difluorophenyl)-N-{4-[2-(2,3-dimethylphenyl)acetamido]pyridin-2-yl}acetamide]"
667,99,97,397,"CC(=O)N(c1ccc(F)c(F)c1)c1cc(NC(=O)Cc2ccccc2OC(F)(F)F)ccn1 [Example 76, N-(3,4-difluorophenyl)-N-(4-{2-[2-(trifluoromethoxy)phenyl]acetamido}pyridin-2-yl)acetamide]"
181,99,97,256,"CC(=O)N(c1cc(NC(=O)Cc2c(Cl)cccc2Cl)ccn1)c1cc(F)ccc1Cl [Example 114, N-(2-chloro-5-fluorophenyl)-N-{4-[2-(2,6-dichlorophenyl)acetamido]pyridin-2-yl}acetamide]"
